Assay results published in patent US8952024B2, “Herbicidal pyrimidone derivatives” (E I du Pont de Nemours and Company, priority 2009, dated 2015).
Read-outs that look alike come from different tables or passages of the source.

What was measured:
Assay in all cases: Test B pre-/postemergence plant response
Type in all cases: in vivo
[1] = system: Italian ryegrass (Lolium multiflorum); conditions: for pest or weed control at 31 g/ha: 31 g ai/ha; for pest or weed control at 62 g/ha: 62 g ai/ha; for pest or weed control at 125 g/ha: 125 g ai/ha
Summary of the method: (§1)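 Seeds were sown in loam soil/sand blend and treated preemergence with compound in non-phytotoxic solvent mixture containing surfactant; postemergence sprays, same formulation, went onto plants 2 to 18 cm (1- to 4-leaf stage) in peat-based planting medium. Greenhouse 13 to 15 days, then visual rating versus untreated controls, 0 (no effect) to 100 (complete control).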

[2] = system: Surinam grass (Brachiaria decumbens); conditions: for pest or weed control at 31 g/ha: 31 g ai/ha; for pest or weed control at 62 g/ha: 62 g ai/ha; for pest or weed control at 125 g/ha: 125 g ai/ha
Summary of the method: as §1

[3] = system: blackgrass (Alopecurus myosuroides); conditions: for pest or weed control at 31 g/ha: 31 g ai/ha; for pest or weed control at 62 g/ha: 62 g ai/ha; for pest or weed control at 125 g/ha: 125 g ai/ha
Summary of the method: as §1

corn (Zea mays) = conditions: for Corn plant response rating (crop injury, 0 = no effect, 100 = complete kill) at 31 g/ha: 31 g ai/ha; for Corn plant response rating (crop injury, 0 = no effect, 100 = complete kill) at 62 g/ha: 62 g ai/ha; for Corn plant response rating (crop injury, 0 = no effect, 100 = complete kill) at 125 g/ha: 125 g ai/ha
Summary of the method: as §1

[4] = system: downy bromegrass (Bromus tectorum); conditions: for pest or weed control at 31 g/ha: 31 g ai/ha; for pest or weed control at 62 g/ha: 62 g ai/ha; for pest or weed control at 125 g/ha: 125 g ai/ha
Summary of the method: as §1

[5] = system: giant foxtail (Setaria faberii); conditions: for pest or weed control at 31 g/ha: 31 g ai/ha; for pest or weed control at 62 g/ha: 62 g ai/ha; for pest or weed control at 125 g/ha: 125 g ai/ha
Summary of the method: as §1

[6] = system: johnsongrass (Sorghum halepense)
Summary of the method: as §1

[7] = Lolium multiflorum, pre-emergence, Preemergence, scale 0 to 100 (0 no effect, 100 complete control), read-out: Plant response rating, Ryegrass, Italian
[8] = Preemergence, 250 g ai/ha, 0 to 100 scale
[9] = Urochloa decumbens, pre-emergence, Preemergence, scale 0 to 100 (0 no effect, 100 complete control), read-out: Plant response rating, Surinam Grass
[10] = Alopecurus myosuroides, pre-emergence, 360 h, Preemergence, scale 0 to 100 (0 no effect, 100 complete control), read-out: Plant response rating, Blackgrass
[11] = Zea mays, pre-emergence, Preemergence, scale 0 to 100 (0 no effect, 100 complete control)
[12] = Bromus tectorum, pre-emergence, Preemergence, scale 0 to 100 (0 no effect, 100 complete control), read-out: Plant response rating, Bromegrass, Downy
[13] = Setaria faberi, pre-emergence, Preemergence, scale 0 to 100 (0 no effect, 100 complete control), read-out: Plant response rating, Foxtail, Giant

SMILES: COCCn1c(-c2cc(F)cc(F)c2)ncc(C(=O)C2=C(O)C3CCC(C3)C2=O)c1=O (stereo not shown) [Compound 243, 2-(3,5-difluorophenyl)-5-[(2-hydroxy-4-oxobicyclo[3.2.1]oct-2-en-3-yl)carbonyl]-3-(2-methoxyethyl)-4(3H)-pyrimidinone]
- pest or weed control at 31 g/ha ([1]; Lolium multiflorum, post-emergence, Postemergence, 0 to 100 scale (0 no effect, 100 complete control), read-out: Plant response rating, Ryegrass, Italian): 60%
- pest or weed control at 62 g/ha ([1]; Lolium multiflorum, post-emergence, Postemergence, scale 0 to 100 (0 no effect, 100 complete control), read-out: Plant response rating, Ryegrass, Italian): 85%
- pest or weed control at 125 g/ha ([1]; Lolium multiflorum, post-emergence, Postemergence, scale 0 (no effect) to 100 (complete control), 13 to 15 days, read-out: Plant response rating, Ryegrass, Italian): 85%
- pest or weed control at 250 g/ha ([1]; Lolium multiflorum, post-emergence, Postemergence, 250 g ai/ha, scale 0 to 100 (0 no effect, 100 complete control), 13 to 15 days, read-out: Plant response rating, Ryegrass, Italian): 95%
- pest or weed control at 31 g/ha [1, 7]: 0%
- pest or weed control at 62 g/ha [1, 7]: 10%
- pest or weed control at 125 g/ha ([1]; Lolium multiflorum, pre-emergence, Preemergence, scale 0 to 100, 0 no effect, 100 complete control, read-out: Plant response rating, Ryegrass, Italian): 45%
- Ryegrass, Italian plant response rating [1, 8]: 70
- Surinam Grass plant response rating [2, 8]: 100
- pest or weed control at 31 g/ha ([2]; Urochloa decumbens, post-emergence, Postemergence, 0 to 100 scale (0 no effect, 100 complete control), read-out: Plant response rating, Surinam Grass): 90%
- pest or weed control at 62 g/ha ([2]; Urochloa decumbens, post-emergence, Postemergence, scale 0 to 100 (0 no effect, 100 complete control), read-out: Plant response rating, Surinam Grass): 95%
- pest or weed control at 125 g/ha ([2]; Urochloa decumbens, post-emergence, Postemergence, scale 0 (no effect) to 100 (complete control), 13 to 15 days, read-out: Plant response rating, Surinam Grass): 100%
- pest or weed control at 250 g/ha ([2]; Urochloa decumbens, post-emergence, Postemergence, 250 g ai/ha, scale 0 to 100 (0 no effect, 100 complete control), 13 to 15 days, read-out: Plant response rating, Surinam Grass): 100%
- pest or weed control at 31 g/ha [2, 9]: 80%
- pest or weed control at 62 g/ha [2, 9]: 98%
- pest or weed control at 125 g/ha ([2]; Urochloa decumbens, pre-emergence, Preemergence, scale 0 to 100, 0 no effect, 100 complete control, read-out: Plant response rating, Surinam Grass): 100%
- pest or weed control at 31 g/ha ([3]; Alopecurus myosuroides, post-emergence, 360 h, Postemergence, 0 to 100 scale (0 no effect, 100 complete control), read-out: Plant response rating, Blackgrass): 60%
- pest or weed control at 62 g/ha ([3]; Alopecurus myosuroides, post-emergence, 360 h, Postemergence, scale 0 to 100 (0 no effect, 100 complete control), read-out: Plant response rating, Blackgrass): 80%
- pest or weed control at 125 g/ha ([3]; Alopecurus myosuroides, post-emergence, 360 h, Postemergence, scale 0 (no effect) to 100 (complete control), 13 to 15 days, read-out: Plant response rating, Blackgrass): 85%
- pest or weed control at 250 g/ha ([3]; Alopecurus myosuroides, post-emergence, 360 h, Postemergence, 250 g ai/ha, scale 0 to 100 (0 no effect, 100 complete control), 13 to 15 days, read-out: Plant response rating, Blackgrass): 98%
- pest or weed control at 31 g/ha [3, 10]: 0%
- pest or weed control at 62 g/ha [3, 10]: 10%
- pest or weed control at 125 g/ha ([3]; Alopecurus myosuroides, pre-emergence, 360 h, Preemergence, scale 0 to 100, 0 no effect, 100 complete control, read-out: Plant response rating, Blackgrass): 70%
- Blackgrass plant response rating [3, 8]: 95
- Corn plant response rating (corn (Zea mays); [8]): 95
- Corn plant response rating (crop injury, 0 = no effect, 100 = complete kill) at 31 g/ha (corn (Zea mays); Zea mays, post-emergence, Postemergence, 0 to 100 scale (0 no effect, 100 complete control)): 90%
- Corn plant response rating (crop injury, 0 = no effect, 100 = complete kill) at 62 g/ha (corn (Zea mays); Zea mays, post-emergence, Postemergence, scale 0 to 100 (0 no effect, 100 complete control)): 95%
- Corn plant response rating (crop injury, 0 = no effect, 100 = complete kill) at 125 g/ha (corn (Zea mays); Zea mays, post-emergence, Postemergence, scale 0 (no effect) to 100 (complete control), 13 to 15 days): 100%
- Corn plant response rating (crop injury, 0 = no effect, 100 = complete kill) at 250 g/ha (corn (Zea mays); Zea mays, post-emergence, Postemergence, 250 g ai/ha, scale 0 to 100 (0 no effect, 100 complete control), 13 to 15 days): 100%
- Corn plant response rating (crop injury, 0 = no effect, 100 = complete kill) at 31 g/ha (corn (Zea mays); [11]): 65%
- Corn plant response rating (crop injury, 0 = no effect, 100 = complete kill) at 62 g/ha (corn (Zea mays); [11]): 75%
- Corn plant response rating (crop injury, 0 = no effect, 100 = complete kill) at 125 g/ha (corn (Zea mays); Zea mays, pre-emergence, Preemergence, scale 0 to 100, 0 no effect, 100 complete control): 85%
- pest or weed control at 31 g/ha ([4]; Bromus tectorum, post-emergence, Postemergence, 0 to 100 scale (0 no effect, 100 complete control), read-out: Plant response rating, Bromegrass, Downy): 50%
- pest or weed control at 62 g/ha ([4]; Bromus tectorum, post-emergence, Postemergence, scale 0 to 100 (0 no effect, 100 complete control), read-out: Plant response rating, Bromegrass, Downy): 70%
- pest or weed control at 125 g/ha ([4]; Bromus tectorum, post-emergence, Postemergence, scale 0 (no effect) to 100 (complete control), 13 to 15 days, read-out: Plant response rating, Bromegrass, Downy): 95%
- pest or weed control at 250 g/ha ([4]; Bromus tectorum, post-emergence, Postemergence, 250 g ai/ha, scale 0 to 100 (0 no effect, 100 complete control), 13 to 15 days, read-out: Plant response rating, Bromegrass, Downy): 100%
- pest or weed control at 31 g/ha [4, 12]: 0%
- pest or weed control at 62 g/ha [4, 12]: 40%
- pest or weed control at 125 g/ha ([4]; Bromus tectorum, pre-emergence, Preemergence, scale 0 to 100, 0 no effect, 100 complete control, read-out: Plant response rating, Bromegrass, Downy): 60%
- Bromegrass, Downy plant response rating [4, 8]: 70
- Foxtail, Giant plant response rating [5, 8]: 95
- pest or weed control at 31 g/ha ([5]; Setaria faberi, post-emergence, Postemergence, 0 to 100 scale (0 no effect, 100 complete control), read-out: Plant response rating, Foxtail, Giant): 95%
- pest or weed control at 62 g/ha ([5]; Setaria faberi, post-emergence, Postemergence, scale 0 to 100 (0 no effect, 100 complete control), read-out: Plant response rating, Foxtail, Giant): 95%
- pest or weed control at 125 g/ha ([5]; Setaria faberi, post-emergence, Postemergence, scale 0 (no effect) to 100 (complete control), 13 to 15 days, read-out: Plant response rating, Foxtail, Giant): 98%
- pest or weed control at 250 g/ha ([5]; Setaria faberi, post-emergence, Postemergence, 250 g ai/ha, scale 0 to 100 (0 no effect, 100 complete control), 13 to 15 days, read-out: Plant response rating, Foxtail, Giant): 98%
- pest or weed control at 31 g/ha [5, 13]: 55%
- pest or weed control at 62 g/ha [5, 13]: 85%
- pest or weed control at 125 g/ha ([5]; Setaria faberi, pre-emergence, Preemergence, scale 0 to 100, 0 no effect, 100 complete control, read-out: Plant response rating, Foxtail, Giant): 95%
- Johnsongrass plant response rating [6, 8]: 100
- pest or weed control at 31 g/ha ([6]; Sorghum halepense, post-emergence, Postemergence, 31 g ai/ha, 0 to 100 scale (0 no effect, 100 complete control), read-out: Plant response rating, Johnsongrass): 100%
- pest or weed control at 62 g/ha ([6]; Sorghum halepense, post-emergence, Postemergence, 62 g ai/ha, scale 0 to 100 (0 no effect, 100 complete control), read-out: Plant response rating, Johnsongrass): 100%
- pest or weed control at 125 g/ha ([6]; Sorghum halepense, post-emergence, Postemergence, 125 g ai/ha, scale 0 (no effect) to 100 (complete control), 13 to 15 days, read-out: Plant response rating, Johnsongrass): 100%
